Data on 62 compounds can be found in PubChem BioAssay AID1320 (NMMLSC, 2008).

Active and inactive are the calls of the source. No rule for the calls is given here.

Sequence of Bcl-2-related protein A1 (Homo sapiens) (Q16548 whole entry, looked up): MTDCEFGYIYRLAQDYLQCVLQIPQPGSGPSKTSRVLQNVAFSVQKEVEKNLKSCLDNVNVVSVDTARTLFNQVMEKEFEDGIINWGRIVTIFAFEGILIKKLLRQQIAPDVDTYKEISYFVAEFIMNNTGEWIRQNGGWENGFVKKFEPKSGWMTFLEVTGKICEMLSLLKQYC

The test addresses Bcl-2-related protein A1 (Homo sapiens) (UniProt Q16548). In words: Bfl-1/Bim complex disruptors – biochemical, multiplexed, bead-based flow cytometry, dose response (AID 1320). Also: test concentration not given here. The following applies: Bim peptide-Bfl-1 binding, fluorescence. On the technique in general: Flow cytometry measures light scatter and fluorescence of single cells or particles in a stream.
With `COc1cccc2c(SCC(=O)N/N=C/c3ccc(O)c(O)c3)cc(C)nc12`, the “percent span (inhibition)” value was “inactive”.

`COc1ccc2nc(C)cc(SCC(=O)N/N=C/c3ccc(O)c(O)c3)c2c1`: the “percent span (inhibition)” value was “inactive”.

As to `COc1ccc(OC)c(-n2c(=O)c3ccccc3c3ccccc3c2=O)c1`, the “percent span (inhibition)” value was “inactive”.

With `O=C(CCCN1C(=O)c2cccc3cccc(c23)C1=O)N1CCN(c2ccccn2)CC1`, the “percent span (inhibition)” value is “inactive”.

`O=C(CCl)Nc1cccc2ncccc12`: the “percent span (inhibition)” value is “inactive”.

Regarding `Cc1cc(-c2nn(-c3ccccc3)cc2/C=C2\SC(N)=NC2=O)ccc1OC(C)C`, the “percent span (inhibition)” value is “inactive”.

For `CCOC(=O)C1CCCN(c2ncnc3c2cnn3-c2cccc(C)c2)C1` (configuration not stated), the “percent span (inhibition)” value was “inactive”.

As to `C/C(=N\NC(=O)COc1ccc(C#N)cc1)c1ccccc1OC(F)F`, the “percent span (inhibition)” value was “inactive”.

Take `NC(=O)c1c(NC(=O)C2CCCO2)sc2c1CCCC2` (configuration not stated): the “percent span (inhibition)” value was “inactive”.

With `CC1Cc2ccccc2N1C(=O)CSc1nnnn1-c1ccc2c(c1)OCCO2` (configuration not stated), the “percent span (inhibition)” value was “inactive”.

`CCOC(=O)c1nc(Nc2ccc(N3CCC(C)CC3)cc2)c2ccccc2n1`: the “percent span (inhibition)” value was “inactive”.

For `COC(=O)c1sc2nc[nH]c(=O)c2c1C`, the “percent span (inhibition)” value was “inactive”.

Take `Cc1ccc(Nc2nc(CSc3nnc(-c4cccnc4)n3-c3ccccc3C)cs2)cc1`: the “percent span (inhibition)” value is “inactive”.

`O=C(Oc1ccc(-c2cnc3ccccc3n2)cc1)c1cccc([N+](=O)[O-])c1`: the “percent span (inhibition)” value was “inactive”.

For the compound `O=C1C(Cl)=C(Nc2ccccc2O)C(=O)N1c1ccccc1`, the “percent span (inhibition)” value was “inactive”.

As to `Cc1ccc(OCC(=O)NCc2ccccn2)c(Br)c1`, the “percent span (inhibition)” value was “inactive”.

For `COC(=O)C1C2c3ccccc3OC1(C)N=c1s/c(=C/c3cnn(C)c3C)c(=O)n12` (configuration not stated), the “percent span (inhibition)” value was “inactive”.

Take `COc1ccc(-c2nnc(SCC(=O)Nc3nc4ccccc4s3)n2C)cc1`: the “percent span (inhibition)” value was “inactive”.

For the compound `CCCn1c(C)cc(-c2csc(N)n2)c1C`, the “percent span (inhibition)” value was “inactive”.

For `COc1ccc(NC(=O)c2sccc2SCc2cccc(C(F)(F)F)c2)cc1`, the “percent span (inhibition)” value is “inactive”.

Consider `Cc1cccc(/C=N/N(CCO)C2=NS(=O)(=O)c3ccccc32)c1`, for which the “percent span (inhibition)” value was “inactive”.

For `C/C(=N\NC(=O)COc1ccc(C(C)(C)C)cc1)c1ccc2c(c1)OCCO2`, the “percent span (inhibition)” value is “inactive”.

On to `CCOC(=O)C1=C(CC)Nc2ccccc2N=C1NC(=O)c1ccc(S(=O)(=O)N2CCOCC2)cc1`, for which the “percent span (inhibition)” value was “inactive”.

Consider `Cc1cc[n+]2cc(-c3cccc([N+](=O)[O-])c3)c(-c3cccc([N+](=O)[O-])c3)cc2c1`, for which the “percent span (inhibition)” value was “inactive”.

On to `Cc1nc2ncccn2c1-c1csc(Nc2ccc(O)cc2)n1`, for which the “percent span (inhibition)” value was “inactive”.

`COc1ccc(CC(=O)Nc2ccc(C(=O)Nc3nccs3)cc2)cc1OC`: the “percent span (inhibition)” value is “inactive”.

For `COc1ccccc1NC(=O)CSc1nnc(-c2ccco2)n1Cc1ccco1`, the “percent span (inhibition)” value is “inactive”.

For `Cc1ccc(C(=O)NNC(=O)c2ccc3ncccc3c2)cc1`, the “percent span (inhibition)” value is “inactive”.

As for `CN1C(=O)/C(=C/c2ccc(-c3ccccc3[N+](=O)[O-])o2)SC1=Nc1ccc(Cl)c(C(=O)O)c1`, the “percent span (inhibition)” value was “inactive”.

As to `CCN(CC)c1ccc(NC(=O)c2ccccc2)cc1S(=O)(=O)Nc1ccccc1OC`, the “percent span (inhibition)” value was “inactive”.

In the case of `O=C1CCc2cc(S(=O)(=O)NCCCC(=O)N3CCN(Cc4ccc5c(c4)OCO5)CC3)ccc2N1`, the “percent span (inhibition)” value is “inactive”.

Turning to `CC(C)n1nnnc1SCC(=O)N1CCN(C(=O)c2ccco2)CC1`, the “percent span (inhibition)” value is “inactive”.

Consider `CCc1cccc(NC(=O)COc2ccccc2)c1`, for which the “percent span (inhibition)” value was “inactive”.

`OCCN1CCN(CCCc2c3c(cc4c2CCC4)CCC3)CC1`: the “percent span (inhibition)” value was “inactive”.

In the case of `COc1ccc(NC(=O)c2c(F)cccc2F)cc1S(=O)(=O)Nc1ccc(Br)cc1`, the “percent span (inhibition)” value was “inactive”.

Regarding `O=C(Nc1cccc(-c2ccc3nncn3n2)c1)c1ccco1`, the “percent span (inhibition)” value is “inactive”.

On to `Cc1cc(C(=O)NCCCN(C)C)c2ccccc2n1`, for which the “percent span (inhibition)” value is “inactive”.

Take `Cc1onc(-c2ccccc2Cl)c1C(=O)Nc1nn[nH]n1`: the “percent span (inhibition)” value is “inactive”.

As to `O=C(O)c1cccc(NC2=C(Cl)C(=O)c3ccccc3C2=O)c1`, the “percent span (inhibition)” value is “inactive”.

In the case of `CCOc1ccc2nc(SCC(=O)N3c4ccccc4Sc4ccccc43)c(C#N)cc2c1`, the “percent span (inhibition)” value was “inactive”.

For the compound `CCOC(=O)/C(=C\c1ccc(Cl)cc1)c1nc2sc(C)c(C)c2c(=O)[nH]1`, the “percent span (inhibition)” value is “inactive”.

For the compound `O=C(OCc1cnc(Cl)s1)c1cccc(Cl)c1Cl`, the “percent span (inhibition)” value was “inactive”.

For the compound `O=C(Cc1ccc(-c2ccccc2)cc1)NC1CCCC1`, the “percent span (inhibition)” value was “inactive”.

Turning to `CC(C)NS(=O)(=O)c1ccc(OCC(=O)Nc2ccc(F)cc2)cc1`, the “percent span (inhibition)” value is “inactive”.

Regarding `O=C(CC1NCCNC1=O)Nc1cccc([N+](=O)[O-])c1` (configuration not stated), the “percent span (inhibition)” value was “inactive”.

In the case of `O=C(c1cc2ccccc2oc1=O)N(c1ccccc1)C1C=CS(=O)(=O)C1` (configuration not stated), the “percent span (inhibition)” value was “inactive”.

For `COC(=O)c1ccc(-n2nnnc2SCC(=O)Nc2cc(OC)ccc2OC)cc1`, the “percent span (inhibition)” value is “inactive”.

`COC(=O)/C(=C/c1ccc(F)cc1)NC(C)=O`: the “percent span (inhibition)” value is “inactive”.

Regarding `COCCCn1c(N)c(C(=O)Nc2sc3c(c2C(=O)OC)CCCC3)c2nc3ccccc3nc21`, the “percent span (inhibition)” value is “inactive”.

Take `O=C(C[n+]1ccc(-c2nnc3n2CCC3)cc1)c1ccc(Cl)cc1`: the “percent span (inhibition)” value is “inactive”.

Take `CCN(CC)c1ccc(NC(=O)COc2ccccc2C#N)cc1S(=O)(=O)Nc1ccccc1OC`: the “percent span (inhibition)” value was “inactive”.

As for `C/C(=N\NC(=O)Cn1nc(C)c([N+](=O)[O-])c1C)c1ccc(O)cc1`, the “percent span (inhibition)” value was “inactive”.

For `O=C(COc1ccccc1)Nc1ccc2c(c1)Cc1cc(NC(=O)COc3ccccc3)ccc1-2`, the “percent span (inhibition)” value was “inactive”.

For `O=C(O)CC1S/C(=N/N=C/C=C/c2ccccc2[N+](=O)[O-])NC1=O` (configuration not stated), the “percent span (inhibition)” value was “inactive”.

Regarding `O=C(O)C1=C[C@H](C2CC2)C[C@H](OCCCCO)O1`, the “percent span (inhibition)” value was “inactive”.

With `CCNCc1cc(Br)c(OCC(=O)Nc2ccccc2)c(OC)c1`, the “percent span (inhibition)” value was “inactive”.

For `CC(C)(C)c1nc(NCCN2CCOCC2)c2nnn(Cc3ccccc3Cl)c2n1`, the “percent span (inhibition)” value was “inactive”.

On to `COc1ccc(Cl)cc1-n1c(C)cc(C=O)c1C`, for which the “percent span (inhibition)” value was “inactive”.

Regarding `Cc1ccc(C(NC(=O)C(C)C)c2cc([N+](=O)[O-])c3cccnc3c2O)cc1` (configuration not stated), the “percent span (inhibition)” value is “inactive”.

Consider `O=C(CNC(=O)c1ccco1)NCC(=O)OCc1ccccc1Br`, for which the “percent span (inhibition)” value is “inactive”.

Consider `CC(NCc1ccc(-c2ccccc2)cc1)C(O)c1ccccc1` (configuration not stated), for which the “percent span (inhibition)” value was “inactive”.

On to `CCOC(=O)N1CCC(c2cc(=O)n(-c3ccccc3)[nH]2)CC1`, for which the “percent span (inhibition)” value is “inactive”.
